Experimental findings from PubChem BioAssay (NCI) are described below.

“And” between values parts separate entries of the source, which are not always exact repeats. Equal values may be shown once.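 These data come from cells grown in 96-well plates and exposed to compound for 48 hours at five concentrations. GI50 is the concentration that inhibits growth by half. TGI: concentration producing complete growth inhibition.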

Common to all, as to assay: NCI anticancer screen, dose series, 48 h
Assay [1] relates to A498 renal.
For assay [2], the system named is HL-60(TB) leukemia.
In assay [3] the test system is M14 melanoma.
Assay [4] has as its system MALME-3M melanoma.
Assay [5] has as its system NCI-H226 lung.
In assay [6] the test system is NCI-H522 lung.
The test system of assay [7] is OVCAR-4 ovarian.
Assay [8] has as its system SF-295 CNS.
Assay [9] deals with SK-MEL-5 melanoma.
Assay [10] deals with SK-OV-3 ovarian.

Regarding `COc1cc(CC(=O)c2cc3c(cc2-c2ccccc2)OCO3)cc(OC)c1OC`, the TGI in assay [1] was over 100 µM; in [2], over 100 µM; in [3], over 100 µM; in [4], over 100 µM; in assay [5] it was 79.3 µM; in assay [6], over 100 µM. Besides, the TGI in assay [7] is over 100 µM; in assay [8], over 100 µM; in assay [9], 27.1 µM; in assay [10], over 100 µM.

In the case of `N/C(=N\C(N)=N\c1nc2ccccc2s1)c1ccnc(Br)c1`, the GI50 was 5.14 µM in [1]; 3.02 µM in assay [2]; 3.39 µM in assay [3]; 6.22 µM in [4]; 15.9 µM in assay [5]; 3.22 µM in assay [6]. For the same molecule, the GI50 was 7.83 µM in assay [7], 4.25 µM in assay [8], 3.49 µM in assay [9] and 5.95 µM in assay [10]. Besides, the TGI is 41 µM in assay [1]; over 100 µM in assay [2]; over 100 µM in [3]; over 100 µM in assay [4]; over 100 µM in assay [5]; over 100 µM in assay [6]. For the same molecule, the TGI in assay [7], in [8], in assay [9] and in assay [10] was over 100 µM in each case.

As for `COc1cccc(/C=C2\CCc3ccccc3C2=O)c1`, the GI50 was 12.1 µM in assay [1]; 21.9 µM in assay [2]; 17 µM in [3]; 12.7 µM in assay [4]; 17.8 µM in assay [5]; 4.09 µM in [6]. Also, the GI50 in assay [7] is 13.7 µM; in assay [8], 9.62 µM; in [9], 10.7 µM; in [10], 20.7 µM. In addition, the TGI in assay [1] stood at 25.1 µM; in assay [2] it was 67.4 µM; in assay [3], 39.6 µM; in assay [4], 29 µM; in assay [5], 43.1 µM; in [6] it was 22.3 µM. Further, the TGI in assay [7] worked out at 54.5 µM; in assay [8], 27.3 µM; in assay [9] it was 23 µM; in assay [10] it was 75.6 µM.

Regarding `c1ccc(N2N=NC3C4CC(C5c6ccccc6C45)C32)cc1` (configuration not stated), the TGI in assay [1] was over 100 µM; in assay [2] it was 85.5 µM; in assay [3] it was over 100 µM; in assay [4], 69.4 µM; in assay [5] it was 96.3 µM; in assay [6], 50.9 µM. Further, the TGI in assay [7] was over 100 µM; in assay [8] it was over 100 µM; in assay [9] it was 38.3 µM; in assay [10], over 100 µM.

For the molecule `Cc1cc2nc3c4cc([N+](=O)[O-])ccc4n(CCN(C)C)c3nc2cc1C`, the GI50 in assay [1] was 0.452 µM; in [2], 0.622 µM; in assay [3], 0.467 µM; in assay [4] it was 0.527 µM; in assay [5], 0.966 µM; in assay [6], 0.893 µM. For the same molecule, the GI50 was 0.527 µM in assay [7], 0.388 µM in assay [8], 1.02 µM in assay [9] and 0.905 µM in assay [10]. Besides, the TGI in [1] amounted to 1.74 µM; in assay [2], 3.97 µM; in assay [3] it was 1.99 µM; in [4], 1.87 µM; in [5], 5.81 µM; in assay [6], 4.94 µM. For the same molecule, the TGI in [7] was 6.6 µM; in assay [8] it was 1.79 µM; in assay [9], 2.21 µM; in [10] it was over 43.4 µM.

Consider `N/C(=N/N=C/c1cccc(F)c1)NO`, for which the TGI was over 100 µM in [1]; 93.5 µM in [2]; 56 µM in assay [3]; over 100 µM in assay [4]; over 100 µM in [5]; 96.1 µM in [6]. Further, the TGI was over 100 µM in assay [7], over 100 µM in [8], 32.4 µM in assay [9] and over 100 µM in assay [10].

Regarding `COc1ccc(/C=C/C(=O)c2ccccc2)cc1OC`, the TGI in assay [1] is 38.6 µM and 32.2 µM; in assay [2], 61.2 µM and > 100 µM; in assay [3] it was 30 µM and 29.6 µM; in [4], 35.1 µM and 38 µM; in [5], 53.6 µM and 32.3 µM; in [6], 31.5 µM and 19.6 µM. The TGI in [7] is 36.6 µM and 33.3 µM; in assay [8] it was 32.9 µM and 34 µM; in assay [9] it was 31.4 µM and 27.9 µM; in [10], 29.5 µM and > 100 µM. For the same molecule, the GI50 in assay [2] was 14.6 µM; in [4] it was 18.7 µM; in [5], 16.4 µM; in assay [6] it was 4.18 µM; in assay [8], 14.5 µM; in assay [9] it was 14.5 µM. For the same molecule, in assay [10], the GI50 was 37.8 µM.

On to `Clc1ccc(Nc2ncnc3c2sc2ncccc23)c(Cl)c1`, for which the GI50 in [1] is 0.0317 µM; in [2], under 0.0137 µM; in [3] it was under 0.01 µM; in assay [4], 6.67 µM; in assay [5] it was 0.42 µM; in assay [6], under 0.0122 µM. The GI50 in assay [7] is over 100 µM; in assay [8] it was 0.0309 µM; in assay [9], 0.0254 µM; in assay [10] it was 0.137 µM. In addition, the TGI in assay [1] is over 22.1 µM; in assay [2], over 100 µM; in assay [3] it was 0.038 µM; in [4], over 100 µM; in assay [5], over 100 µM; in [6], over 100 µM. In addition, the TGI in [7], in assay [8], in assay [9] and in assay [10] was over 100 µM in each case.

Take `NC(CSC1(c2ccc(Cl)cc2)c2ccccc2-c2ccccc21)C(=O)O` (configuration not stated): the TGI was 35 µM in assay [1]; over 100 µM in assay [2]; 68.4 µM in assay [3]; 38.5 µM in assay [4]; 67.5 µM in assay [5]; 30.4 µM in [6]. Further, the TGI in assay [7] was over 100 µM; in assay [8], 37.7 µM; in assay [9], 30.6 µM; in assay [10], over 100 µM.
